Reference: patent publication US20240150300A1, “S-CONFIGURATION-CONTAINING AMINO BENZAMIDE PYRIDAZINONE COMPOUND, PREPARATION METHOD THEREFOR, AND PHARMACEUTICAL COMPOSITION AND APPLICATION THEREOF” (SHANGHAI INSTITUTE OF MATERIA MEDICA, CHINESE ACADEMY OF …, priority 2021, published 2024)

Columns and labels:
CAKI-1 = assay: Antiproliferative activity, CCK-8, CAKI-1; type: cell-based; conditions: CAKI-1, Renal cell carcinoma; read-out: Cytotoxicity (IC50 μM)
Protocol: (§1) The tumor cells used were purchased from commercial cell banks (HCT116 purchased from ATCC, SKM 1 purchased from JCRB). The growth inhibition of cells was detected using the CCK-8 method. The specific steps were as follows. Cells in the logarithmic growth phase were seeded into a 96 well culture plate at an appropriate density, with 90 μL/well. After overnight cultivation, different concentrations of drugs were added for treatment for 72 h, with each concentration in triplicate, and corresponding concentration of vehicle control and cell-free blank wells were also set. After the treatment, 10 μL of CCK-8 was added to each well and the plate was incubated in an incubator for 2-4 hours, and the optical density (OD value) at a wavelength of 450 nm was measured using a SpectraMax 190 microplate reader. […] The experiment was repeated twice, and the mean value and SD were calculated.
(§2) The testing method for antiproliferative activity was the same as that mentioned in Pharmacological Experiment Example 2, and the results are shown in Table 4 and FIGS. 2-3.

Z138 = assay: Antiproliferative activity, CCK-8, Z138; type: cell-based; conditions: Z138, Human mantle cell lymphoma; read-out: Cytotoxicity (IC50 μM)
Protocol: as §1, §2

EoL-1 = assay: Antiproliferative activity, CCK-8, EoL-1; type: cell-based; conditions: EoL-1, Chronic eosinophilic leukemia; read-out: Cytotoxicity (IC50 μM)
Protocol: as §1, §2

HCT-116 cells = assay: Antiproliferative activity, CCK-8, HCT-116; type: cell-based, human; conditions: 72 h
Protocol: as §1

HDAC8 = HDAC8 (Homo sapiens (Human), UniProt Q9BY41); assay: HDAC subtype inhibitory activity (HTRF), HDAC8; type: biochemical
HDAC8, sequence (Q9BY41 whole entry): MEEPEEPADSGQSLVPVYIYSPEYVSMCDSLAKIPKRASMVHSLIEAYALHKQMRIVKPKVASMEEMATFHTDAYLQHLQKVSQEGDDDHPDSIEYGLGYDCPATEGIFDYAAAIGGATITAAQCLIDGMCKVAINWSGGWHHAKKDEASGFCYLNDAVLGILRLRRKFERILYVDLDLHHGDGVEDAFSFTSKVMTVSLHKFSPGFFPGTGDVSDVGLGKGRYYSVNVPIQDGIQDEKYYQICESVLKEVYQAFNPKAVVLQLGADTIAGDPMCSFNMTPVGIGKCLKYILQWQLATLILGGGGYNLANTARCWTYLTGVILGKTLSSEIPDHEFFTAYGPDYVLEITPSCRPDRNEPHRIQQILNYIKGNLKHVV
Protocol: Human recombinant HDAC family proteins with His and GST tags were expressed using insect baculovirus expression system, and a biologically active HDAC family recombinant protein was obtained through Ni affinity column protein purification. HTRF detection method was used with H3(1-21) K9Ac biotin as the substrate. […] Briefly, 20 μl of the activity testing system included the HDAC substrate (0.2 μM. 4 μl), the Human Recombinant Protein HDAC (2-5 ng)/μl.

SU-DHL-6 = assay: Antiproliferative activity, CCK-8, SU-DHL-6; type: cell-based; conditions: SU-DHL-6, Diffuse large B-cell lymphoma; read-out: Cytotoxicity (IC50 μM)
Protocol: as §1, §2

SU-DHL-8 = assay: Antiproliferative activity, CCK-8, SU-DHL-8; type: cell-based; conditions: SU-DHL-8, Diffuse large B-cell lymphoma; read-out: Cytotoxicity (IC50 μM)
Protocol: as §1, §2

MO-91 = assay: Antiproliferative activity, CCK-8, MO-91; type: cell-based; conditions: MO-91, Acute myeloid leukemia; read-out: Cytotoxicity (IC50 μM)
Protocol: as §1, §2

[1] = system: human myelodysplastic syndrome cells SKM-1 transplanted tumor; assay: SKM-1 NOD/SCID mice transplanted tumor model; type: in vivo; conditions: oral 60 mg/kg qd, 18 days
CMK = assay: Antiproliferative activity, CCK-8, CMK; type: cell-based; conditions: Down syndrome acute megakaryocyte leukemia, read-out: Cytotoxicity (IC50 μM)
Protocol: as §1, §2

U-2932 = assay: Antiproliferative activity, CCK-8, U-2932; type: cell-based; conditions: U-2932, Diffuse large B-cell lymphoma; read-out: Cytotoxicity (IC50 μM)
Protocol: as §1, §2

OCI-LY-10 = assay: Antiproliferative activity, CCK-8, OCI-LY-10; type: cell-based; conditions: OCI-LY-10, Diffuse large B-cell lymphoma; read-out: Cytotoxicity (IC50 μM)
Protocol: as §1, §2

HH = assay: Antiproliferative activity, CCK-8, HH; type: cell-based; conditions: Primary cutaneous T-cell non Hodgkin lymphoma, read-out: Cytotoxicity (IC50 μM)
Protocol: as §1, §2

Mino = assay: Antiproliferative activity, CCK-8, Mino; type: cell-based; conditions: Mantle cell lymphoma, read-out: Cytotoxicity (IC50 μM)
Protocol: as §1, §2

HuT78 = assay: Antiproliferative activity, CCK-8, HuT78; type: cell-based; conditions: HuT78, Human T-lymphocytic leukemia; read-out: Cytotoxicity (IC50 μM)
Protocol: as §1, §2

NOMO-1 = assay: Antiproliferative activity, CCK-8, NOMO-1; type: cell-based; conditions: NOMO-1, Acute monocytic leukemia; read-out: Cytotoxicity (IC50 μM)
Protocol: as §1, §2

RL = assay: Antiproliferative activity, CCK-8, RL; type: cell-based; conditions: Diffuse large B-cell lymphoma, read-out: Cytotoxicity (IC50 μM)
Protocol: as §1, §2

SK-MEL-2 = assay: Antiproliferative activity, CCK-8, SK-MEL-2; type: cell-based; conditions: SK-MEL-2, Melanoma; read-out: Cytotoxicity (IC50 μM)
Protocol: as §1, §2

H9 = assay: Antiproliferative activity, CCK-8, H9; type: cell-based; conditions: H9, Human T lymphocyte line; read-out: Cytotoxicity (IC50 μM)
Protocol: as §1, §2

VMM39 = assay: Antiproliferative activity, CCK-8, VMM39; type: cell-based; conditions: VMM39, Melanoma; read-out: Cytotoxicity (IC50 μM)
Protocol: as §1, §2

OCI-AML3 = assay: Antiproliferative activity, CCK-8, OCI-AML3; type: cell-based; conditions: OCI-AML3, Human acute myeloid leukemia; read-out: Cytotoxicity (IC50 μM)
Protocol: as §1, §2

VMM5A = assay: Antiproliferative activity, CCK-8, VMM5A; type: cell-based; conditions: Melanoma, read-out: Cytotoxicity (IC50 μM)
Protocol: as §1, §2

OPM-2 = assay: Antiproliferative activity, CCK-8, OPM-2; type: cell-based; conditions: OPM-2, Human multiple myeloid leukemia; read-out: Cytotoxicity (IC50 μM)
Protocol: as §1, §2

REC-1 = assay: Antiproliferative activity, CCK-8, REC-1; type: cell-based; conditions: REC-1, Human mantle cell lymphoma; read-out: Cytotoxicity (IC50 μM)
Protocol: as §1, §2

WILL-2 = assay: Antiproliferative activity, CCK-8, WILL-2; type: cell-based; conditions: WILL-2, Diffuse large B-cell lymphoma; read-out: Cytotoxicity (IC50 μM)
Protocol: as §1, §2

C[C@@H](c1ccc(C(=O)Nc2ccc(F)cc2N)cc1)n1nc(-c2ccc(CN(C)C)cc2)ccc1=O [Compound I-1]
IC50 (CAKI-1): 0.594 ± 0.011 µM
IC50 (Z138): 0.363 ± 0.046 µM
IC50 (EoL-1): 0.158 µM
IC50 (HCT-116 cells): 220 ± 4 nM
IC50 (HDAC8): > 100000 nM
IC50 (SU-DHL-6): 0.576 ± 0.066 µM
IC50 (SU-DHL-8): 0.443 ± 0.185 µM
IC50 (MO-91): 0.427 ± 0.163 µM
relative tumor proliferation rate (T/C) [1]: 11.78%
IC50 (CMK): 0.131 ± 0.011 µM
IC50 (U-2932): 0.214 ± 0.001 µM
IC50 (OCI-LY-10): 0.297 ± 0.042 µM
IC50 (HH): 0.219 ± 0.093 µM
IC50 (Mino): 0.142 ± 0.013 µM
IC50 (HuT78): 0.769 ± 0.461 µM
IC50 (NOMO-1): 0.523 ± 0.12 µM
IC50 (RL): 0.24 ± 0.019 µM
IC50 (SK-MEL-2): 0.799 ± 0.042 µM
IC50 (H9): 0.649 ± 0.044 µM
IC50 (VMM39): 0.46 ± 0.032 µM
IC50 (OCI-AML3): 0.121 ± 0.003 µM
IC50 (VMM5A): 0.856 ± 0.018 µM
IC50 (OPM-2): 0.436 ± 0.222 µM
IC50 (REC-1): 0.381 µM
IC50 (WILL-2): 0.347 ± 0.217 µM
